# Test results taken from patent publication US9988429B2, “Glucagon analogues” (Zealand Pharma A/S, priority 2013, dated 2018).
# Starred links: 1 amine or outer side, 2 acyl side, 3 side chain; linkers in the order of their positions; H or OH if unused. Non-standard residues stand in square brackets, D forms with d. Residues, ends and D or L forms follow the SMILES beside them. Groups on a side chain read outwards from the residue. *: point of attachment. γGlu = O=C(O)[C@H](CCC(=O)[*:2])N[*:1]; Palmitoyl = CCCCCCCCCCCCCCCC(=O)*; Ac3c = NC1(C(=O)O)CC1
# Molecular target: T1, human glucagon-like peptide 1 receptor (GLP-1R) (Homo sapiens, UniProt P43220)
# T1 construct: expressed in transfected cells
# T1 sequence (P43220 24-463): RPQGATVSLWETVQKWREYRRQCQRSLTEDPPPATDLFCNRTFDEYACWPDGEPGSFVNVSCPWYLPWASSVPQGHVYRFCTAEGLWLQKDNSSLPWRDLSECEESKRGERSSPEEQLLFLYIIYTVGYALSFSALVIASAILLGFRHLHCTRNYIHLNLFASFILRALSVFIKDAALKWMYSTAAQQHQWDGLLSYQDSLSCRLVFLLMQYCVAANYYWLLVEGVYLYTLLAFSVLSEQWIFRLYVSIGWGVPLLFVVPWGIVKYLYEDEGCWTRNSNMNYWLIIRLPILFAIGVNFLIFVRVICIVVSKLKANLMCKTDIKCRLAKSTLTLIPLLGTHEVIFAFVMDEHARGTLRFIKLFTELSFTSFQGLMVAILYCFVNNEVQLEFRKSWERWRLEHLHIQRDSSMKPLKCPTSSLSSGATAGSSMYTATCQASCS
# Assay: GLP-1 receptor efficacy assay (cAMP AlphaScreen, CHO cells)
# Assay type: cell-based
# Settings: for Ratio GLP-1/Glucagon: EC50 [GLP-1R] / EC50 [Glucagon-R], human receptors in CHO-K1; for EC50: cAMP formation, CHO cells expressing human GLP-1-R, read-out: EC50 hGLP-1R CHO-K1
# Procedure: The mammalian expression vectors encoding the Glucagon-R or the GLP-1-R were transfected into Chinese hamster ovary (CHO) cells by the Attractene method. Stably expressing clones were obtained by Zeocin selection (250 μg/mL) upon limited dilution of cells resistant to the selection pressure. […] One Glucagon-R expressing clone and one GLP-1-R expressing clone were chosen for compound profiling.
# CHO cells expressing the human Glucagon-R, or human GLP-1-R were seeded 24 hours prior to the assay at 30,000 cells per well in 96-well microtiter plates in culture in 100 μl growth medium. On the day of analysis, growth medium was removed and the cells were washed once with 200 μl of assay buffer (Krebs-Ringer-buffer—KRBH). The buffer was removed and the cells were incubated for 15 min at room temperature in 10 μl KRBH (KRBH+10 mM HEPES, 5 mM NaHCO3, 0.1% (V/V) BSA) with 0.1 mM IBMX in deionized water containing increasing concentrations of test peptides. The reaction was stopped by the addition of lysis buffer (0.1% w/v BSA, 5 mM HEPES, 0.3% v/v Tween-20). After cell lysis for 10 min at room temperature, lysates were transferred to 384-well plates and 10 μl of acceptor/donorbead mixture as contained in the AlphaScreen™ cAMP Functional Assay Kit was added. After one hour of incubation at room temperature in the dark, the cAMP content was determined applying the AlphaScreen™ cAMP Functional Assay Kit from Perkin-Elmer according to manufacturer instructions. […] The GLP-1/glucagon ratio is calculated as defined earlier.
SMILES,Ratio GLP-1/Glucagon,EC50 [pM]
CCCCCCCCCCCCCCCC(=O)N[C@@H](CCC(=O)NCCCC[C@H](NC(=O)[C@H](CO)NC(=O)[C@H](CC(=O)O)NC(=O)[C@H](CC(C)C)NC(=O)[C@H](Cc1ccc(O)cc1)NC(=O)[C@H](CCCCN)NC(=O)[C@H](CO)NC(=O)[C@H](Cc1ccc(O)cc1)NC(=O)[C@H](CC(=O)O)NC(=O)[C@H](CO)NC(=O)[C@@H](NC(=O)[C@H](Cc1ccccc1)NC(=O)[C@@H](NC(=O)CNC(=O)[C@H](CCC(N)=O)NC(=O)[C@H](C)NC(=O)[C@@H](N)Cc1c[nH]cn1)[C@@H](C)O)[C@@H](C)O)C(=O)N[C@@H](C)C(=O)N[C@@H](C)C(=O)N[C@@H](Cc1c[nH]cn1)C(=O)N[C@@H](CC(=O)O)C(=O)N[C@@H](Cc1ccccc1)C(=O)N[C@H](C(=O)N[C@@H](CCC(=O)O)C(=O)N[C@@H](Cc1c[nH]c2ccccc12)C(=O)N[C@@H](CC(C)C)C(=O)N[C@@H](CC(C)C)C(=O)N[C@@H](CO)C(=O)N[C@@H](C)C(N)=O)C(C)C)C(=O)O [Compound 1],2.26,–
CCCCCCCCCCCCCCCC(=O)N[C@@H](CCC(=O)NCCCC[C@H](NC(=O)[C@H](CO)NC(=O)[C@H](CC(=O)O)NC(=O)[C@H](CC(C)C)NC(=O)[C@H](Cc1ccc(O)cc1)NC(=O)[C@H](CCCCN)NC(=O)[C@H](CO)NC(=O)[C@H](Cc1ccc(O)cc1)NC(=O)[C@H](CC(=O)O)NC(=O)[C@H](CO)NC(=O)[C@@H](NC(=O)[C@H](Cc1ccccc1)NC(=O)[C@@H](NC(=O)CNC(=O)[C@H](CCC(N)=O)NC(=O)[C@H](CO)N(C)C(=O)[C@@H](N)Cc1c[nH]cn1)[C@@H](C)O)[C@@H](C)O)C(=O)N[C@@H](C)C(=O)N[C@@H](C)C(=O)N[C@@H](Cc1c[nH]cn1)C(=O)N[C@@H](CC(=O)O)C(=O)N[C@@H](Cc1ccccc1)C(=O)N[C@H](C(=O)N[C@@H](CCC(=O)O)C(=O)N[C@@H](Cc1c[nH]c2ccccc12)C(=O)N[C@@H](CC(C)C)C(=O)N[C@@H](CC(C)C)C(=O)N[C@@H](CO)C(=O)N[C@@H](C)C(N)=O)C(C)C)C(=O)O [Compound 2],3.83,–
CCCCCCCCCCCCCCCC(=O)N[C@@H](CCC(=O)NCCCC[C@H](NC(=O)[C@H](CO)NC(=O)[C@H](CC(=O)O)NC(=O)[C@H](CC(C)C)NC(=O)[C@H](Cc1ccc(O)cc1)NC(=O)[C@H](CCCCN)NC(=O)[C@H](CO)NC(=O)[C@H](Cc1ccc(O)cc1)NC(=O)[C@H](CC(=O)O)NC(=O)[C@H](CO)NC(=O)[C@@H](NC(=O)[C@H](Cc1ccccc1)NC(=O)[C@@H](NC(=O)CNC(=O)[C@H](Cc1c[nH]cn1)NC(=O)[C@H](C)NC(=O)[C@@H](N)Cc1c[nH]cn1)[C@@H](C)O)[C@@H](C)O)C(=O)N[C@@H](C)C(=O)N[C@@H](C)C(=O)N[C@@H](Cc1c[nH]cn1)C(=O)N[C@@H](CC(=O)O)C(=O)N[C@@H](Cc1ccccc1)C(=O)N[C@H](C(=O)N[C@@H](CCC(=O)O)C(=O)N[C@@H](Cc1c[nH]c2ccccc12)C(=O)N[C@@H](CC(C)C)C(=O)N[C@@H](CC(C)C)C(=O)N[C@@H](CO)C(=O)N[C@@H](C)C(N)=O)C(C)C)C(=O)O [Compound 6] (H-HAHGTFTSDYSKYLDSK([γGlu-Palmitoyl])AAHDFVEWLLSA-NH2),0.75,–
CCCCCCCCCCCCCCCC(=O)N[C@@H](CCC(=O)NCCCC[C@H](NC(=O)[C@H](CO)NC(=O)[C@H](CC(=O)O)NC(=O)[C@H](CC(C)C)NC(=O)[C@H](Cc1ccc(O)cc1)NC(=O)[C@H](CCCCN)NC(=O)[C@H](CO)NC(=O)[C@H](Cc1ccc(O)cc1)NC(=O)[C@H](CC(=O)O)NC(=O)[C@H](CO)NC(=O)[C@@H](NC(=O)[C@H](Cc1ccccc1)NC(=O)[C@@H](NC(=O)CNC(=O)[C@H](Cc1c[nH]cn1)NC(=O)[C@@H](C)NC(=O)[C@@H](N)Cc1c[nH]cn1)[C@@H](C)O)[C@@H](C)O)C(=O)N[C@@H](C)C(=O)N[C@@H](C)C(=O)N[C@@H](Cc1c[nH]cn1)C(=O)N[C@@H](CC(=O)O)C(=O)N[C@@H](Cc1ccccc1)C(=O)N[C@H](C(=O)N[C@@H](CCC(=O)O)C(=O)N[C@@H](Cc1c[nH]c2ccccc12)C(=O)N[C@@H](CC(C)C)C(=O)N[C@@H](CC(C)C)C(=O)N[C@@H](CO)C(=O)N[C@@H](C)C(N)=O)C(C)C)C(=O)O [Compound 7] (H-H[dA]HGTFTSDYSKYLDSK([γGlu-Palmitoyl])AAHDFVEWLLSA-NH2),0.58,–
CCCCCCCCCCCCCCCC(=O)N[C@@H](CCC(=O)NCCCC[C@H](NC(=O)[C@H](CO)NC(=O)[C@H](CC(=O)O)NC(=O)[C@H](CC(C)C)NC(=O)[C@H](Cc1ccc(O)cc1)NC(=O)[C@H](CCCCN)NC(=O)[C@H](CO)NC(=O)[C@H](Cc1ccc(O)cc1)NC(=O)[C@H](CC(=O)O)NC(=O)[C@H](CO)NC(=O)[C@@H](NC(=O)[C@H](Cc1ccccc1)NC(=O)[C@@H](NC(=O)CNC(=O)[C@H](Cc1c[nH]cn1)NC(=O)C1(NC(=O)[C@@H](N)Cc2c[nH]cn2)CC1)[C@@H](C)O)[C@@H](C)O)C(=O)N[C@@H](C)C(=O)N[C@@H](C)C(=O)N[C@@H](Cc1c[nH]cn1)C(=O)N[C@@H](CC(=O)O)C(=O)N[C@@H](Cc1ccccc1)C(=O)N[C@H](C(=O)N[C@@H](CCC(=O)O)C(=O)N[C@@H](Cc1c[nH]c2ccccc12)C(=O)N[C@@H](CC(C)C)C(=O)N[C@@H](CC(C)C)C(=O)N[C@@H](CO)C(=O)N[C@@H](C)C(N)=O)C(C)C)C(=O)O [Compound 8] (H-H[Ac3c]HGTFTSDYSKYLDSK([γGlu-Palmitoyl])AAHDFVEWLLSA-NH2),0.13,–
CCCCCCCCCCCCCCCC(=O)N[C@@H](CCC(=O)NCCCC[C@H](NC(=O)[C@H](CCC(=O)O)NC(=O)[C@H](CC(=O)O)NC(=O)[C@H](CC(C)C)NC(=O)[C@H](Cc1ccc(O)cc1)NC(=O)[C@H](CCCCN)NC(=O)[C@H](CO)NC(=O)[C@H](Cc1ccc(O)cc1)NC(=O)[C@H](CC(=O)O)NC(=O)[C@H](CO)NC(=O)[C@@H](NC(=O)[C@H](Cc1ccccc1)NC(=O)[C@@H](NC(=O)CNC(=O)[C@H](CCC(N)=O)NC(=O)[C@H](C)NC(=O)[C@@H](N)Cc1c[nH]cn1)[C@@H](C)O)[C@@H](C)O)C(=O)N[C@@H](C)C(=O)N[C@@H](C)C(=O)N[C@@H](CCCCN)C(=O)N[C@@H](CC(=O)O)C(=O)N[C@@H](Cc1ccccc1)C(=O)N[C@H](C(=O)N[C@@H](CCC(=O)O)C(=O)N[C@@H](Cc1c[nH]c2ccccc12)C(=O)N[C@@H](CC(C)C)C(=O)N[C@@H](CCC(=O)O)C(=O)N[C@@H](CO)C(=O)N[C@@H](C)C(N)=O)[C@@H](C)CC)C(=O)O [Compound 11],–,140
CCCCCCCCCCCCCCCC(=O)N[C@@H](CCC(=O)NCCCC[C@H](NC(=O)[C@H](CCC(=O)O)NC(=O)[C@H](CC(=O)O)NC(=O)[C@H](CC(C)C)NC(=O)[C@H](Cc1ccc(O)cc1)NC(=O)[C@H](CCCCN)NC(=O)[C@H](CO)NC(=O)[C@H](Cc1ccc(O)cc1)NC(=O)[C@H](CC(=O)O)NC(=O)[C@H](CO)NC(=O)[C@@H](NC(=O)[C@H](Cc1ccccc1)NC(=O)[C@@H](NC(=O)CNC(=O)[C@H](CCC(N)=O)NC(=O)[C@@H](C)NC(=O)[C@@H](N)Cc1c[nH]cn1)[C@@H](C)O)[C@@H](C)O)C(=O)N[C@@H](C)C(=O)N[C@@H](C)C(=O)N[C@@H](CCCCN)C(=O)N[C@@H](CC(=O)O)C(=O)N[C@@H](Cc1ccccc1)C(=O)N[C@H](C(=O)N[C@@H](CCC(=O)O)C(=O)N[C@@H](Cc1c[nH]c2ccccc12)C(=O)N[C@@H](CC(C)C)C(=O)N[C@@H](CCC(=O)O)C(=O)N[C@@H](CO)C(=O)N[C@@H](C)C(N)=O)[C@@H](C)CC)C(=O)O [Compound 12],–,140
CCCCCCCCCCCCCCCC(=O)N[C@@H](CCC(=O)NCCCC[C@H](NC(=O)[C@H](CCC(=O)O)NC(=O)[C@H](CC(=O)O)NC(=O)[C@H](CC(C)C)NC(=O)[C@H](Cc1ccc(O)cc1)NC(=O)[C@H](CCCCN)NC(=O)[C@H](CO)NC(=O)[C@H](Cc1ccc(O)cc1)NC(=O)[C@H](CC(=O)O)NC(=O)[C@H](CO)NC(=O)[C@@H](NC(=O)[C@H](Cc1ccccc1)NC(=O)[C@@H](NC(=O)CNC(=O)[C@H](CCC(N)=O)NC(=O)[C@@H]1CCCN1C(=O)[C@@H](N)Cc1c[nH]cn1)[C@@H](C)O)[C@@H](C)O)C(=O)N[C@@H](C)C(=O)N[C@@H](C)C(=O)N[C@@H](CCCCN)C(=O)N[C@@H](CC(=O)O)C(=O)N[C@@H](Cc1ccccc1)C(=O)N[C@H](C(=O)N[C@@H](CCC(=O)O)C(=O)N[C@@H](Cc1c[nH]c2ccccc12)C(=O)N[C@@H](CC(C)C)C(=O)N[C@@H](CCC(=O)O)C(=O)N[C@@H](CO)C(=O)N[C@@H](C)C(N)=O)[C@@H](C)CC)C(=O)O [Compound 13],0.07,–
CCCCCCCCCCCCCCCC(=O)N[C@@H](CCC(=O)NCCCC[C@H](NC(=O)[C@H](CCC(=O)O)NC(=O)[C@H](CC(=O)O)NC(=O)[C@H](CC(C)C)NC(=O)[C@H](Cc1ccc(O)cc1)NC(=O)[C@H](CCCCN)NC(=O)[C@H](CO)NC(=O)[C@H](Cc1ccc(O)cc1)NC(=O)[C@H](CC(=O)O)NC(=O)[C@H](CO)NC(=O)[C@@H](NC(=O)[C@H](Cc1ccccc1)NC(=O)[C@@H](NC(=O)CNC(=O)[C@H](CCC(N)=O)NC(=O)C1(NC(=O)[C@@H](N)Cc2c[nH]cn2)CCC1)[C@@H](C)O)[C@@H](C)O)C(=O)N[C@@H](C)C(=O)N[C@@H](C)C(=O)N[C@@H](CCCCN)C(=O)N[C@@H](CC(=O)O)C(=O)N[C@@H](Cc1ccccc1)C(=O)N[C@H](C(=O)N[C@@H](CCC(=O)O)C(=O)N[C@@H](Cc1c[nH]c2ccccc12)C(=O)N[C@@H](CC(C)C)C(=O)N[C@@H](CCC(=O)O)C(=O)N[C@@H](CO)C(=O)N[C@@H](C)C(N)=O)[C@@H](C)CC)C(=O)O [Compound 14],0.04,–
